The source made the active and inactive calls.
Experiments:
Microbotryum violaceum = experiment: Antimicrobial activity against Microbotryum violaceum; format: functional, organism-based
Escherichia coli = experiment: Antimicrobial activity against Escherichia coli; format: functional, organism-based
Mycotypha microspora = experiment: Antimicrobial activity against Mycotypha microspora; format: functional, organism-based
Priestia megaterium = experiment: Antimicrobial activity against Bacillus megaterium; format: functional, organism-based
[Chlorella] fusca = Antimicrobial activity against Chlorella fusca; format: functional, organism-based; settings: Scenedesmus fuscus
Aspergillus ruber = experiment: Antimicrobial activity against Eurotium rubrum; format: functional, organism-based
3T3-L1 = experiment: Induction of glucose uptake in mouse 3T3L1 cells at 100 uM; format: functional, cell-based
Homo sapiens [1] = organism: Homo sapiens; experiment: Inhibition of NF-kappaB protein complex (unknown origin) at 100 uM
[2] = biological target: T1, Peroxisome proliferator-activated receptor (Homo sapiens) (UniProt P37231+Q07869+Q03181); experiment: Activity at PPAR (unknown origin) by PPAR co-activator assay; format: protein assay
MCF7 = experiment: Cytotoxicity against human MCF7 cells at 100 uM; format: functional, cell-based
Adipocyte [3] = experiment: Induction of glucose uptake in rat primary adipocyte cells at 100 uM; format: functional, cell-based
[4] = biological target: Tyrosine-protein phosphatase non-receptor type 1 (Homo sapiens) (UniProt P18031); experiment: Inhibition of PTP1B (unknown origin)
Sequence of Tyrosine-protein phosphatase non-receptor type 1 (Homo sapiens) (P18031 whole entry): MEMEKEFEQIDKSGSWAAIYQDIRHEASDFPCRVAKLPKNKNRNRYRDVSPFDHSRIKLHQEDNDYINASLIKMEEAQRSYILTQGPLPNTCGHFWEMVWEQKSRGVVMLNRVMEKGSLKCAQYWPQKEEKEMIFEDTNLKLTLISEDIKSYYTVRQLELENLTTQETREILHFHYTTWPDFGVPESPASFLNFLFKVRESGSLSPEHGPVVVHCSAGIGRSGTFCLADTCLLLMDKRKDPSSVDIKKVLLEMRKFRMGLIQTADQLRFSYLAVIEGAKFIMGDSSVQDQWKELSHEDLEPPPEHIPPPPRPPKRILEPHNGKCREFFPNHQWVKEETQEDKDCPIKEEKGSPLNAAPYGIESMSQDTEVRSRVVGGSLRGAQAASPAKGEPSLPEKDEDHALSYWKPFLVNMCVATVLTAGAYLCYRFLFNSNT

Adipocyte [5] = experiment: Induction of glucose uptake in mouse primary adipocyte cells at 100 uM; format: functional, cell-based
[6] = biological target: T1, Peroxisome proliferator-activated receptor (Homo sapiens); experiment: Activity at PPAR (unknown origin) by PPAR ligand assay; format: protein assay
SF-268 = experiment: Cytotoxicity against human SF268 cells at 100 uM; format: functional, cell-based
NCI-H460 = experiment: Cytotoxicity against human NCI-H460 cells at 100 uM; format: functional, cell-based
[7] = biological target: Histamine H3 receptor (Homo sapiens) (UniProt Q9Y5N1); experiment: Displacement of [3H]alpha-methylhistamine from H3 receptor (unknown origin) at 10 uM
[8] = biological target: Alpha-2A adrenergic receptor (Homo sapiens) (UniProt P08913); experiment: Displacement of [3H]clonidine from alpha2A receptor (unknown origin) at 10 uM
Sequence of Alpha-2A adrenergic receptor (Homo sapiens) (P08913 whole entry): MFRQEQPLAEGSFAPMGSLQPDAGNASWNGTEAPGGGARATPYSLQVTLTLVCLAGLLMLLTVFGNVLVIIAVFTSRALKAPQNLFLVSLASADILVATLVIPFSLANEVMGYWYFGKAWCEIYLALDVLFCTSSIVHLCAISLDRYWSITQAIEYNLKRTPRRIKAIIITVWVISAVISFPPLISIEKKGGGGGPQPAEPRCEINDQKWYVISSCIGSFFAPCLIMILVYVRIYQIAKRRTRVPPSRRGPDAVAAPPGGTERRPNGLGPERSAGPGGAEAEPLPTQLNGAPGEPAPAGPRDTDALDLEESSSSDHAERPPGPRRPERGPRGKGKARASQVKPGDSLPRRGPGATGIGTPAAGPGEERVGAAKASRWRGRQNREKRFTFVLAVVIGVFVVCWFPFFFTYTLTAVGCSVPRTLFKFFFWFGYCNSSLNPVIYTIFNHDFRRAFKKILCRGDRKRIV

[9] = biological target: 5-hydroxytryptamine receptor 1E (Homo sapiens) (UniProt P28566); experiment: Displacement of [3H]5-HT from 5-HT1E receptor (unknown origin) at 10 uM
[10] = biological target: D(1A) dopamine receptor (Homo sapiens) (UniProt P21728); experiment: Displacement of [3H][…] from D1 receptor (unknown origin) at 10 uM
[11] = biological target: Beta-3 adrenergic receptor (Homo sapiens) (UniProt P13945); experiment: Displacement of [125I]iodopindolol from beta3 receptor (unknown origin) at 10 uM
[12] = biological target: Histamine H1 receptor (Homo sapiens) (UniProt P35367); experiment: Displacement of [3H]pyrilamine from H1 receptor (unknown origin) at 10 uM
Rattus norvegicus = organism: Rattus norvegicus; experiment: Displacement of [3H]flunitrazepam from rat brain BZP receptor (unknown origin) at 10 uM
[13] = biological target: D(2) dopamine receptor (Homo sapiens) (UniProt P14416); experiment: Displacement of [3H]N-methylspiperone from D2 receptor (unknown origin) at 10 uM
[14] = biological target: Sodium-dependent serotonin transporter (Homo sapiens) (UniProt P31645); experiment: Displacement of [3H]citalopram from SERT (unknown origin) at 10 uM
[15] = biological target: 5-hydroxytryptamine receptor 2B (Homo sapiens) (UniProt P41595); experiment: Displacement of [3H]LSD from 5-HT2B receptor (unknown origin) at 10 uM
[16] = biological target: 5-hydroxytryptamine receptor 2C (Homo sapiens) (UniProt P28335); experiment: Displacement of [3H]mesulergine from 5-HT2C receptor (unknown origin) at 10 uM
[17] = biological target: Kappa-type opioid receptor (Homo sapiens) (UniProt P41145); experiment: Displacement of [3H]U69593 from kappa opioid receptor (unknown origin) at 10 uM
Sequence of Kappa-type opioid receptor (Homo sapiens) (P41145 whole entry): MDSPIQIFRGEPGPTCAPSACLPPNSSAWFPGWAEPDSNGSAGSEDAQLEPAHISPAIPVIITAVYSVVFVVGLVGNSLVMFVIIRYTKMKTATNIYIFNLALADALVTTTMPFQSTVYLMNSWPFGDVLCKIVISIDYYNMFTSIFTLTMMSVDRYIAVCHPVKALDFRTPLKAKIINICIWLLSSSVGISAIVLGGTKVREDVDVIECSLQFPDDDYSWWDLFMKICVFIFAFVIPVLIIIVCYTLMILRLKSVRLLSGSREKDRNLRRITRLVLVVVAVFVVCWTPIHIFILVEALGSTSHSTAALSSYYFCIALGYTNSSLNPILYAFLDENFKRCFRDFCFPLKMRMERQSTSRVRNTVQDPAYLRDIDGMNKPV

[18] = biological target: Alpha-2B adrenergic receptor (Homo sapiens) (UniProt P18089); experiment: Displacement of [3H]clonidine from alpha2B receptor (unknown origin) at 10 uM
[19] = biological target: Mu-type opioid receptor (Homo sapiens) (UniProt P35372); experiment: Displacement of [3H]DAMGO from mu opioid receptor (unknown origin) at 10 uM
[20] = biological target: Alpha-1B adrenergic receptor (Homo sapiens) (UniProt P35368); experiment: Displacement of [3H]prazosin from alpha1B receptor (unknown origin) at 10 uM
[21] = biological target: Sigma non-opioid intracellular receptor 1 (Homo sapiens) (UniProt Q99720); experiment: Displacement of [3H]pentazocine from sigma1 receptor (unknown origin) at 10 uM
[22] = biological target: Alpha-1D adrenergic receptor (Homo sapiens) (UniProt P25100); experiment: Displacement of radiolabeled ligand from alpha1D receptor (unknown origin) at 10 uM
Sequence of Alpha-1D adrenergic receptor (Homo sapiens) (P25100 whole entry): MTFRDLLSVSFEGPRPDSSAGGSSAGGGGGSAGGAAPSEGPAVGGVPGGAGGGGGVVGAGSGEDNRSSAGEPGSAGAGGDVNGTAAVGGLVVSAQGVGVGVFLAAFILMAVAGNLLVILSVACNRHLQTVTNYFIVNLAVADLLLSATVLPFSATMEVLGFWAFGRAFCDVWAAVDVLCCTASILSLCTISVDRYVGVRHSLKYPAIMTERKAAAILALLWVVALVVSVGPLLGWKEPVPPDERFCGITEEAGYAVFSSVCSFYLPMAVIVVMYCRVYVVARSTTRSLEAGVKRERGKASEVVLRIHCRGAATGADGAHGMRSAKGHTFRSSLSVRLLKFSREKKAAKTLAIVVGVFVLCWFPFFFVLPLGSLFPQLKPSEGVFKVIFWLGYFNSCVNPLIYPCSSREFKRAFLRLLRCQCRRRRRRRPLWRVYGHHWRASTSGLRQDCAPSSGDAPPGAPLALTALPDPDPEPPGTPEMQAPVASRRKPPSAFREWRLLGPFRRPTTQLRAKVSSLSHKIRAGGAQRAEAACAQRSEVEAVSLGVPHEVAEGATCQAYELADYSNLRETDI

[23] = biological target: Histamine H2 receptor (Homo sapiens) (UniProt P25021); experiment: Displacement of [3H]tiotidine from H2 receptor (unknown origin) at 10 uM
[24] = biological target: Alpha-2C adrenergic receptor (Homo sapiens) (UniProt P18825); experiment: Displacement of [3H]clonidine from alpha2C receptor (unknown origin) at 10 uM
[25] = biological target: D(3) dopamine receptor (Homo sapiens) (UniProt P35462); experiment: Displacement of [3H]N-methylspiperone from D3 receptor (unknown origin) at 10 uM
[26] = biological target: Beta-2 adrenergic receptor (Homo sapiens) (UniProt P07550); experiment: Displacement of [125I]iodopindolol from beta2 receptor (unknown origin) at 10 uM
Sequence of Beta-2 adrenergic receptor (Homo sapiens) (P07550 whole entry, looked up): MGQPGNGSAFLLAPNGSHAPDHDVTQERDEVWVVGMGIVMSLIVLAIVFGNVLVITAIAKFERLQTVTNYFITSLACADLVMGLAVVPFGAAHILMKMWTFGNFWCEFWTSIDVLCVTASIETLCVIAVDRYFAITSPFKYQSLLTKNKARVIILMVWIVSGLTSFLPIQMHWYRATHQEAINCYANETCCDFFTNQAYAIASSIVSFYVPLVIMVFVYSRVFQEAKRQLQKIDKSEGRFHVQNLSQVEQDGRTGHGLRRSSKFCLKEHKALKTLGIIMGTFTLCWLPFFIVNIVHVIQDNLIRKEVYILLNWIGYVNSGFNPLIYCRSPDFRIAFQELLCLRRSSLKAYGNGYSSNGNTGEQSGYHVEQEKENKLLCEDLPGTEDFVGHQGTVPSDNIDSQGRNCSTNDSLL

[27] = biological target: D(1B) dopamine receptor (Homo sapiens) (UniProt P21918); experiment: Displacement of [3H][…] from D5 receptor (unknown origin) at 10 uM
[28] = biological target: Muscarinic acetylcholine receptor M2 (Homo sapiens) (UniProt P08172); experiment: Displacement of [3H]QNB from M2 receptor (unknown origin) at 10 uM
[29] = biological target: Sodium-dependent dopamine transporter (Homo sapiens) (UniProt Q01959); experiment: Displacement of [3H]WIN35428 from DAT (unknown origin) at 10 uM
[30] = biological target: 5-hydroxytryptamine receptor 5A (Homo sapiens) (UniProt P47898); experiment: Displacement of [3H]LSD from 5-HT5A receptor (unknown origin) at 10 uM
Sequence of 5-hydroxytryptamine receptor 5A (Homo sapiens) (P47898 whole entry): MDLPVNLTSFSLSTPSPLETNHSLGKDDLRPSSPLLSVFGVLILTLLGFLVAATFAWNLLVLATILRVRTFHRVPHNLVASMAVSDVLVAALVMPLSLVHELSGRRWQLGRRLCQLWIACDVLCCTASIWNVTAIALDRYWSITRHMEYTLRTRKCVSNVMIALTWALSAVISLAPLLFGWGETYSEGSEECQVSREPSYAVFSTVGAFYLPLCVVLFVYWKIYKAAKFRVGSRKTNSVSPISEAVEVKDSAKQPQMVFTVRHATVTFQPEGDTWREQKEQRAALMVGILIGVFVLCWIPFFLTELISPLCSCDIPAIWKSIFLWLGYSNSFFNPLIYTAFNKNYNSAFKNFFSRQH

[31] = biological target: Muscarinic acetylcholine receptor M3 (Homo sapiens) (UniProt P20309); experiment: Displacement of [3H]QNB from M3 receptor (unknown origin) at 10 uM
[32] = biological target: Sodium-dependent noradrenaline transporter (Homo sapiens) (UniProt P23975); experiment: Displacement of [3H]nisoxetine from NET (unknown origin) at 10 uM
[33] = biological target: GABA-A receptor; agonist GABA site (Homo sapiens) (UniProt P14867+P47870+P28472+P48169+P34903+P18505+P47869+P31644+Q16445); experiment: Displacement of [3H]muscimol from GABAA receptor (unknown origin) at 10 uM; format: protein-complex assay
[34] = biological target: D(4) dopamine receptor (Homo sapiens) (UniProt P21917); experiment: Displacement of [3H]N-methylspiperone from D4 receptor (unknown origin) at 10 uM
[35] = biological target: Alpha-1A adrenergic receptor (Homo sapiens) (UniProt P35348); experiment: Displacement of [3H]prazosin from alpha1A receptor (unknown origin) at 10 uM
Sequence of Alpha-1A adrenergic receptor (Homo sapiens) (P35348 whole entry): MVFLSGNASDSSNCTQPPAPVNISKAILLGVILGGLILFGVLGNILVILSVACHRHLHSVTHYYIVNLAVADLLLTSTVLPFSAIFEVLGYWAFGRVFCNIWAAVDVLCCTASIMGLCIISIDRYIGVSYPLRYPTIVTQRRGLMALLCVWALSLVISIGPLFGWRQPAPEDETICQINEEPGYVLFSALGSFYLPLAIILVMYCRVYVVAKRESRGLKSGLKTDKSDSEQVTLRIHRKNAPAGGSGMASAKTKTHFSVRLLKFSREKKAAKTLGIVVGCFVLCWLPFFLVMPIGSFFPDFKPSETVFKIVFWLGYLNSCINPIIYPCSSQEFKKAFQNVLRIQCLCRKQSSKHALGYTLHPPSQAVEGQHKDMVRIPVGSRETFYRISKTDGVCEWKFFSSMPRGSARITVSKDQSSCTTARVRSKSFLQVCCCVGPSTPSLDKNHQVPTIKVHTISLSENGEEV

[36] = biological target: Muscarinic acetylcholine receptor M1 (Homo sapiens) (UniProt P11229); experiment: Displacement of [3H]QNB from M1 receptor (unknown origin) at 10 uM
[37] = biological target: Beta-1 adrenergic receptor (Homo sapiens) (UniProt P08588); experiment: Displacement of [125I]iodopindolol from beta1 receptor (unknown origin) at 10 uM
Sequence of Beta-1 adrenergic receptor (Homo sapiens) (P08588 whole entry, looked up): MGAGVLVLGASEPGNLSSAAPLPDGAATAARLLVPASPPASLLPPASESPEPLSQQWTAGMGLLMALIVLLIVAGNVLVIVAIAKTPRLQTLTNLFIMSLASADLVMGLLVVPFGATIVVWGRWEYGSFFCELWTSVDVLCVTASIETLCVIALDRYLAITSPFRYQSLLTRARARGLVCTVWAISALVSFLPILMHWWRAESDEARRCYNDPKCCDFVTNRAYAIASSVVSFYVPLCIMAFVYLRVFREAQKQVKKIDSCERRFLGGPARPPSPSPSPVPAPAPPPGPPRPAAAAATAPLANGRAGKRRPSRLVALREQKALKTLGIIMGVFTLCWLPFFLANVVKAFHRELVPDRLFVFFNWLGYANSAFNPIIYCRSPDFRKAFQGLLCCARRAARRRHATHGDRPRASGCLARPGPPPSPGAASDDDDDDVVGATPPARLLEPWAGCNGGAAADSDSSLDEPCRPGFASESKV

[38] = biological target: 5-hydroxytryptamine receptor 2A (Homo sapiens) (UniProt P28223); experiment: Displacement of [3H]ketanserin from 5-HT2A receptor (unknown origin) at 10 uM
Sequence of 5-hydroxytryptamine receptor 2A (Homo sapiens) (P28223 whole entry): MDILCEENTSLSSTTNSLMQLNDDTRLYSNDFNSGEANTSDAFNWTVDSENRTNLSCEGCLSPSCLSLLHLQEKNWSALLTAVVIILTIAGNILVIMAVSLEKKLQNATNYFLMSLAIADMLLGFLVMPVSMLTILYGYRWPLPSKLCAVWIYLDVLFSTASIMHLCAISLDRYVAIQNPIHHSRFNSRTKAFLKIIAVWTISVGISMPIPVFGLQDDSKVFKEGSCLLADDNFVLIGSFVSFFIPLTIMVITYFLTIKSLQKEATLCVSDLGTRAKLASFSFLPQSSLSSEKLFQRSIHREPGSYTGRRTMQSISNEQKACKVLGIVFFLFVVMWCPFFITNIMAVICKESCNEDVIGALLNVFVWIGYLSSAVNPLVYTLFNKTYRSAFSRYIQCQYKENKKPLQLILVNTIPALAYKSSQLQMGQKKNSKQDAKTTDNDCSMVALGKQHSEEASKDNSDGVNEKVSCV

[39] = biological target: Delta-type opioid receptor (Homo sapiens) (UniProt P41143); experiment: Displacement of [3H]DADLE from delta opioid receptor (unknown origin) at 10 uM
[40] = biological target: 5-hydroxytryptamine receptor 3A (Homo sapiens) (UniProt P46098); experiment: Displacement of [3H]LY278584 from 5-HT3 receptor (unknown origin) at 10 uM
[41] = biological target: 5-hydroxytryptamine receptor 1B (Homo sapiens) (UniProt P28222); experiment: Displacement of [3H][…] from 5-HT1B receptor (unknown origin) at 10 uM
[42] = biological target: 5-hydroxytryptamine receptor 1D (Homo sapiens) (UniProt P28221); experiment: Displacement of [3H][…] from 5-HT1D receptor (unknown origin) at 10 uM
[43] = biological target: 5-hydroxytryptamine receptor 7 (Homo sapiens) (UniProt P34969); experiment: Displacement of [3H]LSD from 5-HT7 receptor (unknown origin) at 10 uM
[44] = biological target: Muscarinic acetylcholine receptor M5 (Homo sapiens) (UniProt P08912); experiment: Displacement of [3H]QNB from M5 receptor (unknown origin) at 10 uM
Sequence of Muscarinic acetylcholine receptor M5 (Homo sapiens) (P08912 whole entry): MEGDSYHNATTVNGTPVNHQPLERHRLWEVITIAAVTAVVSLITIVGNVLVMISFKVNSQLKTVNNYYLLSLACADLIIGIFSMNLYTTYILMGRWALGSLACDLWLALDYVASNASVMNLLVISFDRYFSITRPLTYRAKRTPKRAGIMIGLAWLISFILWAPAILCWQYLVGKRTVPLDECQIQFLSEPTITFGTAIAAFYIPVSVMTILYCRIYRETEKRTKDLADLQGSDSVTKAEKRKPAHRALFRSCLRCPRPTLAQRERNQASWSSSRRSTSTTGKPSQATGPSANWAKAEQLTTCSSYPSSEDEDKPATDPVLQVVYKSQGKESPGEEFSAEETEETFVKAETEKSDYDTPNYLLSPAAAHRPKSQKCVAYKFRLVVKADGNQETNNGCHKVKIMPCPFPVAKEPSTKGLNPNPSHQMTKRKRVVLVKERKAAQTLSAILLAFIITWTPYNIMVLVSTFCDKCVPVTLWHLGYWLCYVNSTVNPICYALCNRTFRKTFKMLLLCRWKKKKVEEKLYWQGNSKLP

[45] = biological target: Muscarinic acetylcholine receptor M4 (Homo sapiens) (UniProt P08173); experiment: Displacement of [3H]QNB from M4 receptor (unknown origin) at 10 uM
[46] = biological target: 5-hydroxytryptamine receptor 1A (Homo sapiens) (UniProt P08908); experiment: Displacement of [3H]8-OH-DPAT from 5-HT1A receptor (unknown origin) at 10 uM
[47] = biological target: 5-hydroxytryptamine receptor 6 (Homo sapiens) (UniProt P50406); experiment: Displacement of [3H]LSD from 5-HT6 receptor (unknown origin) at 10 uM
[48] = biological target: Histamine H4 receptor (Homo sapiens) (UniProt Q9H3N8); experiment: Displacement of [3H]histamine from H4 receptor (unknown origin) at 10 uM
Sequence of Histamine H4 receptor (Homo sapiens) (Q9H3N8 whole entry): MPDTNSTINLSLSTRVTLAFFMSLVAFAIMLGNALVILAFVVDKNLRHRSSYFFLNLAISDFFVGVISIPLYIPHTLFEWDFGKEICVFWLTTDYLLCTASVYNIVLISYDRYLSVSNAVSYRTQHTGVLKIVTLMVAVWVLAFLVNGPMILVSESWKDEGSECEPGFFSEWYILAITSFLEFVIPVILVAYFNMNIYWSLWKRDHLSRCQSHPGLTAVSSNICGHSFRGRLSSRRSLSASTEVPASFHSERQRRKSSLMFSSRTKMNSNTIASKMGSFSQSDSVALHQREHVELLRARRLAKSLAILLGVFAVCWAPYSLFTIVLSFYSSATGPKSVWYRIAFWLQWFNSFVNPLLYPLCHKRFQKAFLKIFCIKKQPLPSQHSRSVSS

Homo sapiens [49] = organism: Homo sapiens; experiment: Displacement of [3H]DTG from sigma2 receptor (unknown origin) at 10 uM

CCc1cc(O)c(C)c(OC)c1CC(C)C(=O)CC(O)CC (configuration not stated)
inactive: Activity (Microbotryum violaceum) | Activity (Escherichia coli) | Activity (Mycotypha microspora) | Activity (Priestia megaterium) | Activity ([Chlorella] fusca) | Activity (Aspergillus ruber)

COc1c(C)c(O)cc2c1C(O)CC2=O (configuration not stated)
inactive: inhibition (3T3-L1) | Activity (Homo sapiens [1]) | Activity [2] | Activity (MCF7) | Activity (Microbotryum violaceum) | inhibition (Adipocyte [3]) | Activity (Escherichia coli) | inhibition [4] | inhibition (Adipocyte [5]) | Activity (Mycotypha microspora) | Activity [6] | Activity (Priestia megaterium) | Activity (SF-268) | Activity ([Chlorella] fusca) | Activity (NCI-H460) | Activity (Aspergillus ruber)

COc1c(C)c(OC/C=C(\C)CCC=C(C)C)cc2c1[C@H](OC)O[C@@]2(C)OC
inactive: Activity (Homo sapiens [1]) | Activity (MCF7) | Activity (Microbotryum violaceum) | Activity (Escherichia coli) | Activity (Mycotypha microspora) | Activity (Priestia megaterium) | Activity (SF-268) | Activity ([Chlorella] fusca) | Activity (NCI-H460) | Activity (Aspergillus ruber)

COCc1c(CO)cc(O)c(C)c1OC
inactive: Activity (Microbotryum violaceum) | Activity (Escherichia coli) | Activity (Mycotypha microspora) | Activity (Priestia megaterium) | Activity ([Chlorella] fusca) | Activity (Aspergillus ruber)

CCc1cc(O)c(C)c(=O)o1
inactive: inhibition (3T3-L1) | Activity [2] | Activity (Microbotryum violaceum) | inhibition (Adipocyte [3]) | Activity (Escherichia coli) | inhibition [4] | inhibition (Adipocyte [5]) | Activity (Mycotypha microspora) | Activity [6] | Activity (Priestia megaterium) | Activity ([Chlorella] fusca) | Activity (Aspergillus ruber)

COc1c(C)c(OC/C=C(\C)CCC=C(C)C)cc2c1[C@H](OC)O[C@]2(C)OC
inactive: Activity (Homo sapiens [1]) | Activity (Microbotryum violaceum) | Activity (Escherichia coli) | Activity (Mycotypha microspora) | Activity (Priestia megaterium) | Activity ([Chlorella] fusca) | Activity (Aspergillus ruber)

COCc1c(C(C)O)cc(O)c(C)c1OC (configuration not stated)
inactive: inhibition [7] | inhibition [8] | inhibition [9] | inhibition [10] | inhibition [11] | inhibition [12] | inhibition (Rattus norvegicus) | inhibition [13] | inhibition [14] | inhibition [15] | inhibition [16] | inhibition [17] | inhibition [18] | inhibition [19] | inhibition [20] | inhibition [21] | inhibition [22] | inhibition [23] | inhibition [24] | Activity (Microbotryum violaceum) | inhibition [25] | inhibition [26] | inhibition [27] | inhibition [28] | Activity (Escherichia coli) | inhibition [29] | inhibition [30] | inhibition [31] | inhibition [32] | inhibition [33] | inhibition [34] | inhibition [35] | inhibition [36] | inhibition [37] | inhibition [38] | inhibition [39] | inhibition [40] | inhibition [41] | inhibition [42] | inhibition [43] | inhibition [44] | Activity (Mycotypha microspora) | Activity (Priestia megaterium) | inhibition [45] | inhibition [46] | Activity ([Chlorella] fusca) | inhibition [47] | Activity (Aspergillus ruber) | inhibition [48] | inhibition (Homo sapiens [49])

Source: ChEMBL document CHEMBL2331098, “Unprecedented polyketides from a marine sponge-associated Stachylidium sp” (J Nat Prod, 2013)
